Activity calls are given as the source filed them.
Key:
[1] = HPDE-C7 pancreatic duct cell viability loss – fluorescence, HTS (AID 430); type: functional, cell-based; details: Homo sapiens
[2] = viability loss of HPDE-C7K cells – cell-based, fluorescence, HTS, primary screen (AID 431); type: functional; details: Homo sapiens
[3] = target: E3 ubiquitin-protein ligase Mdm2/Protein Mdm4 (Homo sapiens, UniProt O15151+Q00987); experiment: disruption of Mdm2/MdmX protein binding – luminescence detection, dose response (AID 504593); type: functional
[4] = target: Envelope glycoprotein gp160 (Human immunodeficiency virus 1, UniProt Q6QLK5); experiment: cell-free HIV fusion peptide-binding blockers – biochemical, uHTS, fluorescence dequenching, […] (AID 1986)
Aminopeptidase N = target: T1, Aminopeptidase N (Plasmodium falciparum FcB1/Columbia, UniProt O96935); experiment: malaria alanyl aminopeptidase activity blockers – biochemical, fluorogenic H-Leu-NHMec substrate, 1536-well (AID 1445); design: species or system Plasmodium falciparum 3D7, 3D7
T1 sequence (O96935 whole entry): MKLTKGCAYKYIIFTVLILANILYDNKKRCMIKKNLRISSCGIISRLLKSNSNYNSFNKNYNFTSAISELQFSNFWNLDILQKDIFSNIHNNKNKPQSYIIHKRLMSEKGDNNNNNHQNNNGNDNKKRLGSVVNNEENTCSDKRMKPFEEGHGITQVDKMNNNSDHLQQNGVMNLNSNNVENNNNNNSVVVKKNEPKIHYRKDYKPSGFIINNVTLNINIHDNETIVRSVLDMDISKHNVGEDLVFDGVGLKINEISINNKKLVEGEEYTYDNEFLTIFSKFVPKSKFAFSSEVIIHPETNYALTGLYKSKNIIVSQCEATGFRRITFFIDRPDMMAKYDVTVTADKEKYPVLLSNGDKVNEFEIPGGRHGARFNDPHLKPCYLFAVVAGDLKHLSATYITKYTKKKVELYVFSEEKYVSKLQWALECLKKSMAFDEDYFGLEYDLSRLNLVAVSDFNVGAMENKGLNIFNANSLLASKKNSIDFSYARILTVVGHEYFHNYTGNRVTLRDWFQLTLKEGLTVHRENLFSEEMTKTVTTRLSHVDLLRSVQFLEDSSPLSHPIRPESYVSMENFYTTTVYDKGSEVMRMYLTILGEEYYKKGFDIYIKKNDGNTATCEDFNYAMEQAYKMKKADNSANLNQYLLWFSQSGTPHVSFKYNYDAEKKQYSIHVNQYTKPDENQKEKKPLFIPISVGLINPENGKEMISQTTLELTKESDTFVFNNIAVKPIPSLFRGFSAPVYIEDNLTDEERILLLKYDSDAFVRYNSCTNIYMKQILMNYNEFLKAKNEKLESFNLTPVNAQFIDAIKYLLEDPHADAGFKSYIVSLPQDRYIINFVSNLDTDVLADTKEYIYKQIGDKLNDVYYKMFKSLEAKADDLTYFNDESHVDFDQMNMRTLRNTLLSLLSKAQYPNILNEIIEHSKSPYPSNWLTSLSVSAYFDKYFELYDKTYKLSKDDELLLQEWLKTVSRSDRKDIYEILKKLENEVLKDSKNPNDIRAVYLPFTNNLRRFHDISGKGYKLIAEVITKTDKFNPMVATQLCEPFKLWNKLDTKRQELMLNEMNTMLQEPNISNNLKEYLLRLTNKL

Genome polyprotein = Genome polyprotein (dengue virus type 2, UniProt P29990); experiment: flavivirus cap methylation enzyme inhibition – biochemical, confirmation dose response, primary screen (AID 588689); type: functional
[5] = target: T2, Probable nicotinate-nucleotide adenylyltransferase (Staphylococcus aureus (strain N315), UniProt P65502); type: functional, Staphylococcus aureus subsp. aureus N315;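 as to IC50 Mean: confirmatory dose-response retesting of NadD inhibitor hits first found in an ultra-high-throughput screen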
[6] = target: T2, Probable nicotinate-nucleotide adenylyltransferase; type: functional, Staphylococcus aureus subsp. aureus N315; details: read-out: IC50_Mean
[7] = target: T3, Carboxy-terminal domain RNA polymerase II polypeptide A small phosphatase 1 (Homo sapiens, UniProt Q9GZU7); experiment: CTDSP1 inhibitors, concentration-response, biochemical, absorbance readout, ultra-high-throughput screen actives (AID 540297); type: functional
T3 sequence (Q9GZU7 whole entry): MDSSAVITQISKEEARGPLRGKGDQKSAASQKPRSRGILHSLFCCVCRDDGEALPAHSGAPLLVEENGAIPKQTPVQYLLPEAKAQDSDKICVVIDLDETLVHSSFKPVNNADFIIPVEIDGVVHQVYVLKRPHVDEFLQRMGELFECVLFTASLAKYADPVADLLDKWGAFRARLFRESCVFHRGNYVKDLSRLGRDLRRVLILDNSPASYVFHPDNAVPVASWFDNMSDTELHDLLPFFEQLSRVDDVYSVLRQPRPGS

[8] = target: DNA dC->dU-editing enzyme APOBEC-3A (Homo sapiens, UniProt P31941); experiment: Dose Response confirmation of small molecule APOBEC3A DNA Deaminase Inhibitors via a fluorescence-based single-stranded DNA deaminase assay. [Related pubchem assays (depositor defined):AID493011, AID493024]; type: functional
[9] = target: DNA dC->dU-editing enzyme APOBEC-3G (Homo sapiens, UniProt Q9HC16); type: functional;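 also: Dose-response counterscreen measuring inhibition of APOBEC3G DNA deaminase activity, run while confirming APOBEC3A inhibitors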
CAAX prenyl protease 2 = CAAX prenyl protease 2 (Saccharomyces cerevisiae S288c, UniProt Q03530); type: biochemical
[10] = luciferase reporter signal suppression in cells – H4 neuroglioma cells, luminescence, dose response (AID 1990); type: functional, cell-based
[11] = luciferase reporter signal reduction – luminescence, H4-C neuroglioblastoma cells, dose response (AID 2458); type: functional, cell-based;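 also: H4 neuroglioblastoma cells stably carrying a luciferase reporter gene fusion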
[12] = target: Luciferin 4-monooxygenase (Photinus pyralis, UniProt P08659); experiment: Counter Screen for Luciferase-based Assay Positives. [Related pubchem assays: 620, 618, 411 ]
cells = type: functional, cell-based
[13] = Luminescence Cell-Based Dose Response HTS to Identify Inhibitors of 5'UTR Stem-Loop Driven Prion Protein mRNA Translation in H4 Neuroglioblastoma Cells. [Related pubchem assays: 1827 (Project Summary), 1813 (Primary HTS)]; type: functional
[14] = target: T4, Heat shock factor protein 1 (Mus musculus, UniProt P38532); experiment: decrease of HSF1-responsive luciferase luminescence – cell-based, NIH3T3, dose retest, confirmation (AID 2382); type: functional;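 also: NIH3T3 fibroblasts with HSF1-driven luciferase reporter stressed by proteasome inhibitor MG132; luminescence from HSF1-driven luciferase expression after 8 hours of MG132 stress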
T4 sequence (P38532 whole entry): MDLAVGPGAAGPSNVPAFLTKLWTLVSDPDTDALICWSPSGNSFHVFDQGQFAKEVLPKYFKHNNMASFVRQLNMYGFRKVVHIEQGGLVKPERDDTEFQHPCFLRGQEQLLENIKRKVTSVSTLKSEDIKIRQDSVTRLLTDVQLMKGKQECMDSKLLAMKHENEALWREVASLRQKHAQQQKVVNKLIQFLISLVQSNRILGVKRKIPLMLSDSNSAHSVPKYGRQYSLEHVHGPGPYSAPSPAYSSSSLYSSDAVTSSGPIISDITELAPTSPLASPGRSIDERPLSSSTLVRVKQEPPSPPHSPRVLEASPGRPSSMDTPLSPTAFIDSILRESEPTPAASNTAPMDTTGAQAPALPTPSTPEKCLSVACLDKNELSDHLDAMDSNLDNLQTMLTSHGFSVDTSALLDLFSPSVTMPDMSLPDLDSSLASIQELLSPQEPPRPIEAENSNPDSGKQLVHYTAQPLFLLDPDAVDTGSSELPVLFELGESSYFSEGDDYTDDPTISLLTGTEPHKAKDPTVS

[15] = alpha-synuclein stem-loop luciferase translation blockers – H4 neuroglioma cells, luminescence, confirmation (AID 1988); type: functional, cell-based
HT-1080 = experiment: HT1080 cell viability loss – fluorescence readout (AID 620); type: functional, cell-based; details: Homo sapiens
[16] = alpha-synuclein stem-loop translation blockers – luminescence, H4 neuroglioblastoma cells, dose confirmation, confirmation (AID 2454); type: functional, cell-based;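 also: H4 neuroglioblastoma cells carrying an alpha-synuclein 5'UTR luciferase reporter; potency for inhibition of the luciferase signal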
[17] = HEK-293T viability loss after treatment – luminescence, T-cell screen hits, cytotoxicity control for TCR NF-kB inhibitor project, dose response (AID 489026); type: functional, cell-based;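 also: cells exposed to compound about 14 hours before the viability readout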
[18] = target: T5, Epstein-Barr nuclear antigen 1 (Epstein-Barr virus (strain B95-8) (HHV-4) (Human herpesvirus 4), UniProt P03211); experiment: inhibition of EBV nuclear antigen 1 DNA binding – biochemical, fluorescence polarization, 1536-well, dose response (AID 2381); design: species or system human gammaherpesvirus 4;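 also: fluorescence polarization of a Cy5 DNA probe bound by EBNA-1 protein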
T5 sequence (P03211 whole entry): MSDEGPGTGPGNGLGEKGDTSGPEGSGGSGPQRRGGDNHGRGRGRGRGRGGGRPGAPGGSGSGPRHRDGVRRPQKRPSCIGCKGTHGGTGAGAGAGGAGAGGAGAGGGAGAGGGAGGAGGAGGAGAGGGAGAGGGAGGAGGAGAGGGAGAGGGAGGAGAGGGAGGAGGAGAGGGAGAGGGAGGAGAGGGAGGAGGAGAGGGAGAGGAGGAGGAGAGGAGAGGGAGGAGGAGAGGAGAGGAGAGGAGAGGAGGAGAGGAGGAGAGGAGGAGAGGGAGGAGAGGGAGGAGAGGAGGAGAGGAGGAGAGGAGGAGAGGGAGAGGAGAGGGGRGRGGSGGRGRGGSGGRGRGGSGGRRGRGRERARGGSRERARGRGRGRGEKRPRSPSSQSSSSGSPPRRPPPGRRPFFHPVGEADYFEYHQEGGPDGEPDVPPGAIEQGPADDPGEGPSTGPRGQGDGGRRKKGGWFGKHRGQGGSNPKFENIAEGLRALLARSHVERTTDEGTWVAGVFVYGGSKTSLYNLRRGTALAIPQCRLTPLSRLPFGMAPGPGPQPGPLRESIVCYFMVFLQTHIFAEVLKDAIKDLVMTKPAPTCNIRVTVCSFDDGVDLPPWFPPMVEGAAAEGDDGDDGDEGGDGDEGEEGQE

[19] = target: T6, Lytic switch protein BZLF1 (Epstein-Barr virus (strain B95-8) (HHV-4) (Human herpesvirus 4), UniProt P03206); experiment: inhibition of BZLF1 ZTA DNA binding – biochemical, fluorescence polarization, Epstein-Barr virus, 1536-well, counter-screen for EBNA-1 inhibitor project, dose response (AID 2377); design: species or system human gammaherpesvirus 4;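 also: fluorescence polarization of Cy5-labelled ZRE DNA probe bound by purified Zta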
T6 sequence (P03206 whole entry): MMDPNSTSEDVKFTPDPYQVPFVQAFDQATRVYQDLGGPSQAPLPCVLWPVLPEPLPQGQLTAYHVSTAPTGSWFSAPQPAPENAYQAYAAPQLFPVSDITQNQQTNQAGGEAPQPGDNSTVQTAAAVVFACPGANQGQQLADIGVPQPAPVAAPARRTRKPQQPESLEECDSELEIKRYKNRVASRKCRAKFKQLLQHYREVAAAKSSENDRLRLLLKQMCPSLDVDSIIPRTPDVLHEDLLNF

[20] = target: DNA damage-inducible transcript 3 protein (Mus musculus, UniProt P35639); type: functional, Cricetulus griseus
Cytochrome P450 2C19 = Cytochrome P450 2C19 (Homo sapiens, UniProt P33261); experiment: Cytochrome panel assay with activity outcomes. Panel member name: p450-cyp2c19 Compounds with AC50 equal or less than 10 uM are considered active; type: functional; details: read-out: AC50
[21] = target: Glyceraldehyde-3-phosphate dehydrogenase (Homo sapiens, UniProt P04406)
[22] = target: Alkaline phosphatase, placental type (Homo sapiens, UniProt P05187); experiment: human placental alkaline phosphatase inhibition – biochemical, luminescence, confirmation (AID 1512); type: functional
[23] = target: T7, Alkaline phosphatase, tissue-nonspecific isozyme (Homo sapiens, UniProt P05186); experiment: potency against alkaline phosphatase TNAP – biochemical, luminescent, dose response, SAR follow-up (AID 1056)
T7 sequence (P05186 whole entry): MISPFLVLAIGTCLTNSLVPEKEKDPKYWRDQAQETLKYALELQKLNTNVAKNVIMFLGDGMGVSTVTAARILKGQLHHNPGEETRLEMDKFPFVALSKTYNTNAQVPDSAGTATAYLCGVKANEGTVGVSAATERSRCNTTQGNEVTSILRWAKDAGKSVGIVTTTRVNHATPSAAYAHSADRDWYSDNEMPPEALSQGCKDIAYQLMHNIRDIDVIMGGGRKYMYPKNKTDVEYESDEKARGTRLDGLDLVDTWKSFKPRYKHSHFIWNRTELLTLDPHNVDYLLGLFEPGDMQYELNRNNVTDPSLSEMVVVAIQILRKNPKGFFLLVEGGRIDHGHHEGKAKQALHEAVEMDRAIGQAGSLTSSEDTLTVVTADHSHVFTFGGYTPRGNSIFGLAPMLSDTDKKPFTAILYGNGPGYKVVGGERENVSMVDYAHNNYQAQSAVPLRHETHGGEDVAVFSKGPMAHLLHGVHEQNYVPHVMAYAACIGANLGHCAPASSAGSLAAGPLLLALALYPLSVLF

Large T antigen = Large T antigen (Simian virus 40, UniProt P03070); type: functional, Betapolyomavirus macacae;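 also: Confirmatory-stage PubChem screen for compounds that inhibit SV40 T antigen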

E3 ubiquitin-protein ligase Mdm2/Protein Mdm4, sequence (Q00987 whole entry, the tested form may be a part): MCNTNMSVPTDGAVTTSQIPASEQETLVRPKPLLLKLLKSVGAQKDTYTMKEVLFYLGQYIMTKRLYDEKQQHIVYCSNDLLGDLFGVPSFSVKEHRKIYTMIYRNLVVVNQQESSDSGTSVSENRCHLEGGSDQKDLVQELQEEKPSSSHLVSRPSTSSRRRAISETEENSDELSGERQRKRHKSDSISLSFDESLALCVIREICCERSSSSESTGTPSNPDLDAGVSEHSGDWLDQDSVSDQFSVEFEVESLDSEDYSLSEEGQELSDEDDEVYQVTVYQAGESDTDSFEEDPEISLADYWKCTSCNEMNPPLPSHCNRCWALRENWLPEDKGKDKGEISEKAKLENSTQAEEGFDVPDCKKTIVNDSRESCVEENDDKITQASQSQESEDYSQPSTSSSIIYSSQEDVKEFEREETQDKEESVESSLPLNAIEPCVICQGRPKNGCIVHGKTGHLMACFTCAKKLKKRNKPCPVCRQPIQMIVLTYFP
E3 ubiquitin-protein ligase Mdm2/Protein Mdm4, sequence (O15151 whole entry, the tested form may be a part): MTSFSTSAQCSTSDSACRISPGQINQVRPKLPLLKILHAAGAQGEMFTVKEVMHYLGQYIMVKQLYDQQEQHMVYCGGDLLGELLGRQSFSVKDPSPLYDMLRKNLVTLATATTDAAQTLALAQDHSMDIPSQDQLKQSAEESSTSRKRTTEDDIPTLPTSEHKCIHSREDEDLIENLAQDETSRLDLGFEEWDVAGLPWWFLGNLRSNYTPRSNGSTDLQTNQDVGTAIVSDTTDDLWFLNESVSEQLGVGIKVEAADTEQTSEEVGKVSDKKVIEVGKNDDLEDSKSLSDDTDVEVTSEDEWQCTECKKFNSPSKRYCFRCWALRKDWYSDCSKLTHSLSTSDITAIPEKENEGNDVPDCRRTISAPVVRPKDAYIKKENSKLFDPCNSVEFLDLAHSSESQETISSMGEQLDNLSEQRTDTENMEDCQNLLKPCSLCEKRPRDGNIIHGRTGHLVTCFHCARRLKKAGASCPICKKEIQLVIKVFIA
T2 sequence (P65502 whole entry): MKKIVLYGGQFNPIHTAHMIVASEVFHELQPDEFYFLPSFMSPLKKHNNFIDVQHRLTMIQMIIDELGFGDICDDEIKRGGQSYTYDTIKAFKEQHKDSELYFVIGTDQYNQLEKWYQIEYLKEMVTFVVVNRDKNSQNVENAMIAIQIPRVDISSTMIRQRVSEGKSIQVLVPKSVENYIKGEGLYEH
Genome polyprotein, sequence (P29990 2492-3391 limits assumed): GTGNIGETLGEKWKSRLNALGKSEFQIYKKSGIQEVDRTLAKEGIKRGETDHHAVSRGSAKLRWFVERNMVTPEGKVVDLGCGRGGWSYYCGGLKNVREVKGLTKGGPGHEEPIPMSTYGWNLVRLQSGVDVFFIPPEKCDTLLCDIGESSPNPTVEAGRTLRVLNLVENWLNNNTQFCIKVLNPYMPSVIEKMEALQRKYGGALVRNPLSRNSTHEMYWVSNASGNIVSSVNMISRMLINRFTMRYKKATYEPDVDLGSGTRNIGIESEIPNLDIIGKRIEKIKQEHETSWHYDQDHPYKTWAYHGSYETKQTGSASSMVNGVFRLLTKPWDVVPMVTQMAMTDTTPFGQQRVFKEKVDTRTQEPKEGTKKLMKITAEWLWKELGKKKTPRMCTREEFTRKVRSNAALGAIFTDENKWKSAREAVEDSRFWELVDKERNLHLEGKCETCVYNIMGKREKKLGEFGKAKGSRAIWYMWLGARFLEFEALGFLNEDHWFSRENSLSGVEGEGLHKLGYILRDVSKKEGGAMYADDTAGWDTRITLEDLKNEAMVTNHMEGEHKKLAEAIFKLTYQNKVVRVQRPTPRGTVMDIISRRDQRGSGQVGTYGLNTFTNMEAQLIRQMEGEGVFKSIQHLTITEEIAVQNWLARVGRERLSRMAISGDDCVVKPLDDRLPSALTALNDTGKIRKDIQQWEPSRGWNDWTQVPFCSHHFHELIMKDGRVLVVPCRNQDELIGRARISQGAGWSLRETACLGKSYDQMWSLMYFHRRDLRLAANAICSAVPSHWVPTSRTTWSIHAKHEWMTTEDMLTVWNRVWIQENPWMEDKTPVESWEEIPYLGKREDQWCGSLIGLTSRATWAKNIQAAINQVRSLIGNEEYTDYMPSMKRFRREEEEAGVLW
Envelope glycoprotein gp160, sequence (Q6QLK5 whole entry, the tested form may be a part): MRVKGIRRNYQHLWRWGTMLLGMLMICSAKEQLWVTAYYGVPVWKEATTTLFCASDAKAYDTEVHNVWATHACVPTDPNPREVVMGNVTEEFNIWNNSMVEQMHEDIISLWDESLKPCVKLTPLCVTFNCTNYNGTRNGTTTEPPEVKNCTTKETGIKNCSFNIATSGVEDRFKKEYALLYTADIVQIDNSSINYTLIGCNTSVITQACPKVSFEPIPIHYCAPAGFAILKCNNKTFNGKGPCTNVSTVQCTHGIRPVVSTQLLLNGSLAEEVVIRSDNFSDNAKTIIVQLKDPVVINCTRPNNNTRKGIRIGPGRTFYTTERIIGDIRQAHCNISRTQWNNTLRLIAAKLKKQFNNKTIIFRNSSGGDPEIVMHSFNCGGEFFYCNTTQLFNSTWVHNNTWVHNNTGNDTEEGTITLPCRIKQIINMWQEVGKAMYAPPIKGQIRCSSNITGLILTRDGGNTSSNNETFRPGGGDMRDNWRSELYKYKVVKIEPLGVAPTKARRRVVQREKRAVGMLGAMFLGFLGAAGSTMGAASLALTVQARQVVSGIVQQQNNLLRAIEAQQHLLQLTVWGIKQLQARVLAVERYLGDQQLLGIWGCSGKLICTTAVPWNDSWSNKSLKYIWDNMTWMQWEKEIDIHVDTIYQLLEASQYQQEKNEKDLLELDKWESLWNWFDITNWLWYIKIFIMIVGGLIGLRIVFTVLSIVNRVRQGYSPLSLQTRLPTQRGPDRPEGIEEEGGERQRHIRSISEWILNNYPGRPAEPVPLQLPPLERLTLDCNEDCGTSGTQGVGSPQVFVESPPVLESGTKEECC
DNA dC->dU-editing enzyme APOBEC-3G, sequence (Q9HC16 whole entry): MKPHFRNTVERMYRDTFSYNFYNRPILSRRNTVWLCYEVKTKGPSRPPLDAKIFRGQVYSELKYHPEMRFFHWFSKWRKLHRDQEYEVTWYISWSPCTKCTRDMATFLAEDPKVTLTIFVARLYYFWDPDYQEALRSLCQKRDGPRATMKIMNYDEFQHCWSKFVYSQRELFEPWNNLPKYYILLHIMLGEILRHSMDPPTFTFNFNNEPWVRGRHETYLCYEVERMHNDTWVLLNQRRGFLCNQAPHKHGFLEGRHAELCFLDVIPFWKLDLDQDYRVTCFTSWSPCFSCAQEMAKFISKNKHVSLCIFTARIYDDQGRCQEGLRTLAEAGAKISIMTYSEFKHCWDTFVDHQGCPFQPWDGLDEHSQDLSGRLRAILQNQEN
DNA dC->dU-editing enzyme APOBEC-3A, sequence (P31941 whole entry): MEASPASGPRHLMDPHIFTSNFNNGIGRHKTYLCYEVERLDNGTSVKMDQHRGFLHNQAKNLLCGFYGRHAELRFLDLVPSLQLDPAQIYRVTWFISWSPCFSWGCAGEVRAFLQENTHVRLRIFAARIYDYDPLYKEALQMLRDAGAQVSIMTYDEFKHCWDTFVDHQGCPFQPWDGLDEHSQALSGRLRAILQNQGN
Alkaline phosphatase, placental type, sequence (P05187 whole entry): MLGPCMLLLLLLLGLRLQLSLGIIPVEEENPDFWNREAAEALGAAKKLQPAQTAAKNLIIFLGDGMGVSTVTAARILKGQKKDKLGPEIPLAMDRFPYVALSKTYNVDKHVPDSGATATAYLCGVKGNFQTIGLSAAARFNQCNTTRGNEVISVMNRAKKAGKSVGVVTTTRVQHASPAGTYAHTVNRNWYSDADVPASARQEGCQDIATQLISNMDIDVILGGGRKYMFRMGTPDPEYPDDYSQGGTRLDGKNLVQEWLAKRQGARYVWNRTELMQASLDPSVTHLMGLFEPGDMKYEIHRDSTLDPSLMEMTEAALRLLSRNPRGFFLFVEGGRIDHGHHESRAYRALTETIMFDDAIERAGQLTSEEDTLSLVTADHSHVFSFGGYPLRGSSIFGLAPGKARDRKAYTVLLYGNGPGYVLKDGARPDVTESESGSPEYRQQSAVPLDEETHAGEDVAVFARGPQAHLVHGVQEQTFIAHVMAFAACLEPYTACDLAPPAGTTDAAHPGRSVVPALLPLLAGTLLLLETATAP
Cytochrome P450 2C19, sequence (P33261 whole entry): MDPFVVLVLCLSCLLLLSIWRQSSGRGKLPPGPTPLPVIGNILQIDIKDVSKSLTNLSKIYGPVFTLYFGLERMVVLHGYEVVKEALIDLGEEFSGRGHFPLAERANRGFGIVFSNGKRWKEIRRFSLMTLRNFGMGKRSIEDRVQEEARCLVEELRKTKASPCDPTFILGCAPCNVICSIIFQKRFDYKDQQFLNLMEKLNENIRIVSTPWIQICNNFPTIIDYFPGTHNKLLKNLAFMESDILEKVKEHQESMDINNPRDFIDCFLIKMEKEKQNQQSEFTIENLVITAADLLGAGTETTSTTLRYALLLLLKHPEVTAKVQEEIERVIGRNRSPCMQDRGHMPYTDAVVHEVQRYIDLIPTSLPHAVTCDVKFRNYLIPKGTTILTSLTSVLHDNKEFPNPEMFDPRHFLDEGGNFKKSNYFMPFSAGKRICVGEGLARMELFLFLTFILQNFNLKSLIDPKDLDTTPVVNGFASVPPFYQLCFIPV
Glyceraldehyde-3-phosphate dehydrogenase, sequence (P04406 whole entry): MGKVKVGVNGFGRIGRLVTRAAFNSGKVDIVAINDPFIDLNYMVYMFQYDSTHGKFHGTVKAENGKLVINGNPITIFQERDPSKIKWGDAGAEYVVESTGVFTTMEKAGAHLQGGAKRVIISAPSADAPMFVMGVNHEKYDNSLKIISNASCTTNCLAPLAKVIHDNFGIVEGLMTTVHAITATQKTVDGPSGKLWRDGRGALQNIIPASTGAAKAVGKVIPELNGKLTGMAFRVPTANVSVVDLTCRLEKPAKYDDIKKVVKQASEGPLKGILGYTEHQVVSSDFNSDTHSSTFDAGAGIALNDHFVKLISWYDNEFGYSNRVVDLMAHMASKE

COc1ccc2c(c1)C1(Nc3ccccc3-c3nc4ccccc4n31)C(=O)N2C (stereo unspecified)
EC50 [1]: > 20 µM (not active) | EC50 [2]: > 20 µM (not active) | IC50 [3]: 2.85 µM (active)

CCc1nnc(NS(=O)(=O)c2ccc(NC(=S)NC(=O)/C=C/c3ccc(F)cc3)cc2)s1
IC50 [4]: 18.3 µM (active) | IC50 (Aminopeptidase N): 76.7 µM (active) | IC50 (Genome polyprotein): 39.3 µM (active) | IC50 [5]: 4.58 µM (active) | IC50 [6]: 45.4 µM (active)

O=C(O)CCN1C(=O)/C(=C2\C(=O)N(Cc3ccc(F)cc3)c3ccccc32)SC1=S
IC50 [4]: > 99 µM (inactive) | IC50 (Genome polyprotein): 41.2 µM (active) | IC50 [7]: 3.03 µM (active)

Cc1ccc(C(=O)Nc2cc(Cl)ccc2-n2cncn2)o1
IC50 [8]: 85 µM (active) | IC50 [9]: 20.5 µM (active)

C[C@@]12CCC=C[C@H]1[C@H](c1ccc(/C=C/c3ccccc3)cc1F)N(Cc1ccccc1)C2=O
AC50 (CAAX prenyl protease 2): 45.9 µM (active)

COCCn1c(C)cc(C2=NN=C(Nc3ccccc3F)SC2)c1C
EC50 [10]: 8.18 µM (active) | EC50 [11]: 1.3 µM (active) | EC50 [12]: 2.67 µM (active) | EC50 (cells): > 12 µM (not active) | EC50 [13]: < 0.1 µM (active) | EC50 [14]: < 0.16 µM (active) | EC50 [15]: < 0.1 µM (active) | EC50 (HT-1080): > 50 µM (not active) | EC50 [16]: 1.69 µM (active) | IC50 [3]: 1.33 µM (active) | IC50 [17]: > 80 µM (inactive)

COc1ccc(C)cc1NC(=O)CCCN1C(=O)NC(C)(C)C1=O
IC50 [8]: 11 µM (active) | IC50 [9]: 11.9 µM (active)

Cc1cccc(OCC(=O)N/N=C\C=C\c2ccc3c(c2)OCO3)c1C
IC50 [18]: 5.84 µM (active) | IC50 [19]: > 111 µM (not active) | Absolute IC50 (CHOP) [20]: 10 µM | AC50 (Cytochrome P450 2C19): 10 µM (inconclusive)

Cc1n[nH]c2c1C(=O)CC(C)(C)C2
IC50 [21]: > 100 µM (not active) | IC50 [22]: > 100 µM (inactive) | IC50 [23]: 19.9 µM (active)

COCc1cc(C)nc(SCC(=O)c2ccc(O)c(O)c2)c1C#N
IC50 (Large T antigen): 3.71 µM (active) | IC50 [22]: 2.16 µM (active)

Source: ChEMBL document CHEMBL1201862, “PubChem BioAssay data set” (2004)
